According to patent publication US7915276B2, “Berberrubine derivatives having antifungal activities” (priority 2006, dated 2011):

What was measured:
[1] = molecular target: T1, chitin synthase 2 of Saccharomyces cerevisiae ECY38-38A(pAS6) (Saccharomyces cerevisiae, UniProt P14180); assay: In vitro enzyme assay for chitin synthase 2 of Saccharomyces cerevisiae (enzyme 2); assay type: biochemical; settings: relative to polyoxin D (50% inhibitory activity = value 5)
T1 construct: made in house; host or cells: Saccharomyces cerevisiae ECY38-38A (chs1-23 chs2::LEU2 cal1/csd2) carrying plasmid pAS6, grown in galactose medium; 130,000 x g membrane pellet
T1 sequence (P14180 whole entry): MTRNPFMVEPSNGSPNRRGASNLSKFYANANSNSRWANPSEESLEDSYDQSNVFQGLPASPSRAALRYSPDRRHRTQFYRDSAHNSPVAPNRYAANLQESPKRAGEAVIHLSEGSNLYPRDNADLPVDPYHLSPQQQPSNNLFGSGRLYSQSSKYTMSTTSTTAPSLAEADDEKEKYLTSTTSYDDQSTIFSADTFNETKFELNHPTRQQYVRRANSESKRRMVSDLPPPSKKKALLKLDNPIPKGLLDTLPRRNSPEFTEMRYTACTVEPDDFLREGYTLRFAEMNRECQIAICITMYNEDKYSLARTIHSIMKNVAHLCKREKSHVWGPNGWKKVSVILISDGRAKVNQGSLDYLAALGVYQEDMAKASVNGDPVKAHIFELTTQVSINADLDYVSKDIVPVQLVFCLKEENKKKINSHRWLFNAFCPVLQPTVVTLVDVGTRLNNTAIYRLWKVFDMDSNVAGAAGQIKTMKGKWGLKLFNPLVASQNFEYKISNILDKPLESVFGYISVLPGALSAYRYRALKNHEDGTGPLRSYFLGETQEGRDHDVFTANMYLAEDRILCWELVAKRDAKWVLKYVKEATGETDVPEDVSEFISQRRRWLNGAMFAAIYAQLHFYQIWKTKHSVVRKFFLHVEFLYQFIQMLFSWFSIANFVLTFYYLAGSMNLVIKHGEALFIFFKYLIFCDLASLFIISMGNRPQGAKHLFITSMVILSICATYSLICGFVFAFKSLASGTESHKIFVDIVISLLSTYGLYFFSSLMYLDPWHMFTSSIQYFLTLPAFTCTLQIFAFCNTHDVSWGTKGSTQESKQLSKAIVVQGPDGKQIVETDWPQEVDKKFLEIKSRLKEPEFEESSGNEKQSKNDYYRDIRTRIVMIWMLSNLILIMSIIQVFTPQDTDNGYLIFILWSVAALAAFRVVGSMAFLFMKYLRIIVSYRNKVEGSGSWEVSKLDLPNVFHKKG
Description: Crude enzyme was prepared using the recombinant Saccharomyces cerevisiae ECY38-38A(pAS6) (MATa chs1-23 chs2::LEU2 cal 1/csd 2 ura 3-52 trp 1-1 leu 2-2 pAS6) strain, which can produce the chitin synthase 2 only. The strain was inoculated with the YPG culture medium (1% yeast extract, 2% peptone, 2% galactose) and cultured at 30° C. overnight. Then, it was inoculated with a fresh YPG culture medium and cultured for 15-17 hours until the Absorbance at 550 nm reaches 1.0. The cells were collected and suspended in 50 mM Tris-HCl (pH 7.5) buffer containing 5 mM magnesium acetate. After centrifugation at 8,000×g for 10 minutes, the pellets were suspended in the same Tris-HCl buffer solution. The suspension was divided into aliquots in 50 mL conical test tubes. After adding the glass beads, the cells were disrupted by vigorously vortexing with an interval of 30 seconds. The cell residues were removed by centrifuging at 3,000×g for 5 minutes. The supernatant was ultra-centrifuged at 130,000×g for 1 hour. The resultant pellets were collected and suspended in 50 mM Tris-HCl (pH 7.5) containing 33% glycerol, to a final volume of 1.6 mg/g (wet weight) of yeast used. The suspension was divided into aliquots and kept at −70° C. until it is used.
(§1) The inhibitory activities against the chitin synthase 1 of Candida albicans chs2 Δ chs 3 Δ (abbreviated as ‘enzyme 1’) and the chitin synthase 2 of Saccharomyces cerevisiae ECY38-38A(pAS6)(abbreviated as ‘enzyme 2’) was examined for compound Nos. 1 to 70 compound and polyoxin D, a positive control compound.
(§2) The inhibitory activity against the chitin synthase 1 prepared from Candida albicans and the chitin synthase 2 prepared from Saccharomyces cerevisiae were examined as follows. A reaction mixture containing 32 mM Tris-HCl (pH 7.5), 2 mM cobalt acetate, 1.1 mM UDP-[U-^14C]-N-acetyl-d-glucosamine (GlcNAc) (400,000 cpm/μmol), 2 μL of trypsin (0.75 mg/mL), 20 μL of each crude enzyme and 14 μL of each test sample was kept at 30° C. for 15 minutes to activate the enzyme. Then, 2 μL of trypsin inhibitor (1.5 mg/mL) was added and the mixture was kept in an ice bath for 10 minutes to deactivate trypsin. 2 μL of 0.8 M N-acetyl-d-glucosamine was added to a total volume of 50 μL and reaction was performed at 30° C. for 90 minutes. The reaction was stopped using 1 mL of 10% TCA solution and the reaction solution was filtered with a GF/C filter and dried at room temperature. After adding 3 mL of a scintillation cocktail solution, the amount of isotopes was measured using a liquid scintillation counter. Percentage inhibition against each enzyme was calculated by the following Equation 1.
(§3) The control group was not added with a test sample in the reaction mixture and that of the untreated group contained neither the test sample nor the crude enzyme.
(§4) A 50% inhibitory activity of polyoxin D against the enzyme was given the value 5. A compound having the same inhibitory activity as that of polyoxin D at the same concentration was given the value 5. Compounds having the inhibitory activity at 2-fold, 4-fold, 8-fold and 16-fold higher concentrations than that of polyoxin D were given the values of 4, 3, 2 and 1, respectively. On the other hand, compounds having the inhibitory activity at ½, ¼ and ⅛ lower concentrations than that of polyoxin D were given the values of 6, 7 and 8, respectively.

[2] = molecular target: T2, chitin synthase 1 of Candida albicans chs2 Δ chs 3 Δ (Candida albicans, UniProt P23316); assay: In vitro enzyme assay for chitin synthase 1 of Candida albicans (enzyme 1); assay type: biochemical; settings: relative to polyoxin D (50% inhibitory activity = value 5)
T2 construct: Crude enzyme was prepared using the Candida albicans chs2 Δ chs 3 Δ mutant; endogenous in cells; host or cells: Candida albicans chs2Δ/chs2Δ chs3Δ/chs3Δ mutant; 130,000 x g membrane pellet
T2 sequence (P23316 whole entry, stated change not applied): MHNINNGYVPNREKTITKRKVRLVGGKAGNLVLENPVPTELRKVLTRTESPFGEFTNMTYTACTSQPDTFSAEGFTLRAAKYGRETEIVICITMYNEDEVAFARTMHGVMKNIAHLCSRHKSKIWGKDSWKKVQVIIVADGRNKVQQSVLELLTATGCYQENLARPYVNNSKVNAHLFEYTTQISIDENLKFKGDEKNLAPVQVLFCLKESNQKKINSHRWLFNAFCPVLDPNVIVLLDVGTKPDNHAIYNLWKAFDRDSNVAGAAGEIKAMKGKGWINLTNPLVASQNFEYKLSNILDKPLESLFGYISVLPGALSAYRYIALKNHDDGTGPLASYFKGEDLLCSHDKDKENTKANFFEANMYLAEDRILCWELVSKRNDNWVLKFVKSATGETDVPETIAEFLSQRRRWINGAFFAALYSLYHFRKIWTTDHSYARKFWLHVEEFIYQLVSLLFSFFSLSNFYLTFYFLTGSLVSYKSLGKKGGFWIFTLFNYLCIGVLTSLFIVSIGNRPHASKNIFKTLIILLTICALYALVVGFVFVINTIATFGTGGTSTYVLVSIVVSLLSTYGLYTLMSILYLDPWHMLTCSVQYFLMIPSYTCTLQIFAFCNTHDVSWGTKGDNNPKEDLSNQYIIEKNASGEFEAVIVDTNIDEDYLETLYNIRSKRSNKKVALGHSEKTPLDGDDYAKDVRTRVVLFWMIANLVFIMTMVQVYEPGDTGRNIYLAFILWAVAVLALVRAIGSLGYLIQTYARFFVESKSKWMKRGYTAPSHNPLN
Description: Crude enzyme was prepared using the Candida albicans chs2 Δ chs 3 Δ mutant (chs2 Δ::hisG/chs2 Δ::hisG chs3 Δ::hisG/chs3 Δ::hisG) strain, which can only produce the chitin synthase 1. The strain was inoculated with the SDA (Sabouraud dextrose agar) culture medium (4% dextrose, 1% peptone, pH 5.6) and cultured at 30° C. for 15-17 hours until the absorbance at 550nm reaches 0.7. The cells were collected and suspended in a 50 mM Tris-HCl (pH 7.5) buffer solution containing 5 mM magnesium acetate. After centrifugation at 8,000×g for 10 minutes, the pellets were suspended in the same Tris-HCl buffer solution. The suspension was divided into aliquots in 50 mL conical test tubes. After adding glass beads, the cells were disrupted by vigorously vortexing with an interval of 30 seconds. The cell residues were removed by centrifuging at 3,000×g for 5 minutes. The supernatant was ultra-centrifuged at 130,000×g for 1 hour. The resultant pellets were collected and suspended in 50 mM Tris-HCl (pH 7.5) containing 33% glycerol, to a final volume of 1.6 mg/g (wet weight) of yeast used. The suspension was divided into aliquots and kept at −70° C. until it is used.
as §1, §2, §3, §4

Compound	Relative activity Enzyme 2 [1]	Relative activity Enzyme 1 [2]
13-(3,4,5-Trifluorobenzyl)berberrubine [Compound No. 1]	3 (Compounds having the inhibitory activity at 2-fold, 4-fold, 8-fold and 16-fold higher concentrations than that of polyoxin D were given the values of 4, 3, 2 and 1, respectively)	1 (Compounds having the inhibitory activity at 2-fold, 4-fold, 8-fold and 16-fold higher concentrations than that of polyoxin D were given the values of 4, 3, 2 and 1, respectively)
13-(3,4,5-Trimethoxybenzyl)-9-O-hexylberberrubine chloride [Compound No. 63]	4 (Compounds having the inhibitory activity at 2-fold, 4-fold, 8-fold and 16-fold higher concentrations than that of polyoxin D were given the values of 4, 3, 2 and 1, respectively)	2 (Compounds having the inhibitory activity at 2-fold, 4-fold, 8-fold and 16-fold higher concentrations than that of polyoxin D were given the values of 4, 3, 2 and 1, respectively)
13-(4-Trifluoromethoxybenzyl)-9-O-hexylberberrubine chloride [Compound No. 66]	5 (A compound having the same inhibitory activity as that of polyoxin D at the same concentration was given the value 5)	2 (Compounds having the inhibitory activity at 2-fold, 4-fold, 8-fold and 16-fold higher concentrations than that of polyoxin D were given the values of 4, 3, 2 and 1, respectively)
COc1ccc2c(Cc3cc(F)c(F)c(F)c3)c3[n+](cc2c1OCc1ccc(C(C)(C)C)cc1)CCc1cc2c(cc1-3)OCO2.[Br-] [Compound No. 29, 13-(3,4,5-Trifluorobenzyl)-9-O-(4-tert-butylbenzyl)berberrubine bromide]	5 (A compound having the same inhibitory activity as that of polyoxin D at the same concentration was given the value 5)	2 (Compounds having the inhibitory activity at 2-fold, 4-fold, 8-fold and 16-fold higher concentrations than that of polyoxin D were given the values of 4, 3, 2 and 1, respectively)
13-(3,4,5-Trimethoxybenzyl)berberrubine [Compound No. 2]	3 (Compounds having the inhibitory activity at 2-fold, 4-fold, 8-fold and 16-fold higher concentrations than that of polyoxin D were given the values of 4, 3, 2 and 1, respectively)	1 (Compounds having the inhibitory activity at 2-fold, 4-fold, 8-fold and 16-fold higher concentrations than that of polyoxin D were given the values of 4, 3, 2 and 1, respectively)
COc1ccc2c(Cc3cc(F)c(F)c(F)c3)c3[n+](cc2c1OCc1ccc(C(C)(C)C)cc1)CCc1cc2c(cc1-3)OCO2.[Cl-] [Compound No. 61, 13-(3,4,5-Trifluorobenzyl)-9-O-(4-tert-butylbenzyl)berberrubine chloride]	4 (Compounds having the inhibitory activity at 2-fold, 4-fold, 8-fold and 16-fold higher concentrations than that of polyoxin D were given the values of 4, 3, 2 and 1, respectively)	2 (Compounds having the inhibitory activity at 2-fold, 4-fold, 8-fold and 16-fold higher concentrations than that of polyoxin D were given the values of 4, 3, 2 and 1, respectively)
13-(3,4,5-trifluorobenzyl)-9-O-butylberberrubine chloride [Compound No. 59]	5 (A compound having the same inhibitory activity as that of polyoxin D at the same concentration was given the value 5)	3 (Compounds having the inhibitory activity at 2-fold, 4-fold, 8-fold and 16-fold higher concentrations than that of polyoxin D were given the values of 4, 3, 2 and 1, respectively)
13-(3,4,5-Trifluorobenzyl)-9-O-hexylberberrubine chloride [Compound No. 60]	5 (A compound having the same inhibitory activity as that of polyoxin D at the same concentration was given the value 5)	2 (Compounds having the inhibitory activity at 2-fold, 4-fold, 8-fold and 16-fold higher concentrations than that of polyoxin D were given the values of 4, 3, 2 and 1, respectively)
13-(4-Trifluoromethoxybenzyl)-9-O-butylberberrubine chloride [Compound No. 65]	6 (compounds having the inhibitory activity at ½, ¼ and ⅛ lower concentrations than that of polyoxin D were given the values of 6, 7 and 8, respectively)	3 (Compounds having the inhibitory activity at 2-fold, 4-fold, 8-fold and 16-fold higher concentrations than that of polyoxin D were given the values of 4, 3, 2 and 1, respectively)
13-(3,4,5-Trifluorobenzyl)-9-O-butylberberrubine iodide [Compound No. 27]	6 (compounds having the inhibitory activity at ½, ¼ and ⅛ lower concentrations than that of polyoxin D were given the values of 6, 7 and 8, respectively)	3 (Compounds having the inhibitory activity at 2-fold, 4-fold, 8-fold and 16-fold higher concentrations than that of polyoxin D were given the values of 4, 3, 2 and 1, respectively)
13-(4-Trifluoromethoxybenzyl)-9-O-butylberberrubine iodide [Compound No. 33]	6 (compounds having the inhibitory activity at ½, ¼ and ⅛ lower concentrations than that of polyoxin D were given the values of 6, 7 and 8, respectively)	3 (Compounds having the inhibitory activity at 2-fold, 4-fold, 8-fold and 16-fold higher concentrations than that of polyoxin D were given the values of 4, 3, 2 and 1, respectively)
COc1ccc2c(Cc3ccc(C(OC)(OC)OC)cc3)c3[n+](cc2c1OC)CCc1cc2c(cc1-3)OCO2.[Cl-] [Comparative compound 3, reference compound]	1 (Compounds having the inhibitory activity at 2-fold, 4-fold, 8-fold and 16-fold higher concentrations than that of polyoxin D were given the values of 4, 3, 2 and 1, respectively)	<1 (Compounds having the inhibitory activity at 2-fold, 4-fold, 8-fold and 16-fold higher concentrations than that of polyoxin D were given the values of 4, 3, 2 and 1, respectively)
COc1ccc2c(Cc3ccc(OC(F)(F)F)cc3)c3[n+](cc2c1OCc1ccc(C(C)(C)C)cc1)CCc1cc2c(cc1-3)OCO2.[Cl-] [Compound No. 67, 13-(4-Trifluoromethoxybenzyl)-9-O-(4-tert-butylbenzyl)berberrubine chloride]	5 (A compound having the same inhibitory activity as that of polyoxin D at the same concentration was given the value 5)	2 (Compounds having the inhibitory activity at 2-fold, 4-fold, 8-fold and 16-fold higher concentrations than that of polyoxin D were given the values of 4, 3, 2 and 1, respectively)
13-(3,4,5-Trimethoxybenzyl)-9-O-hexylberberrubine iodide [Compound No. 31]	4 (Compounds having the inhibitory activity at 2-fold, 4-fold, 8-fold and 16-fold higher concentrations than that of polyoxin D were given the values of 4, 3, 2 and 1, respectively)	2 (Compounds having the inhibitory activity at 2-fold, 4-fold, 8-fold and 16-fold higher concentrations than that of polyoxin D were given the values of 4, 3, 2 and 1, respectively)
